# Measurements: ChEMBL document CHEMBL3507680, “University of Dundee, Gates Library screen for HepG2 cell viability”
# Test: Human HepG2 cell viability assay in 384 well format
# Type: toxicity, cell-based
# Parameters: dose 125 nL, time 70.5 hour; cytotoxicity at 70.5 h: concentration not given beside the values
# Settings: HepG2 cells, read-out: Inhibition
row,Compound,cytotoxicity at 70.5 h [%]
1,CCOc1ccc(NC(=O)c2ccc(C#N)cc2C)cc1CO,-1.73
2,CC(NCCn1cccn1)c1ccccc1F (stereo not drawn),-0.726
3,CN(C)c1ccc(C(=O)N2CCCC(n3cncn3)C2)nn1 (stereo not drawn),-5.16
4,O=C1CCCCCN1Cc1ncnn1Cc1c(F)cccc1Cl,-5.62
5,CCN1CCCC1Cn1ccc2ccc(C(=O)OC)cc2c1=O (stereo not drawn),-8.61
6,COC1CCN(S(=O)(=O)N2CCCC(c3cccc(C(=O)O)c3)C2)CC1 (stereo not drawn),-9.91
7,CC(O)CN1CCC(CNCCOCC(F)(F)F)CC1 (stereo not drawn),-7.95
8,CC1(c2ccccc2)CCCN(Cc2cncn2C2CCCC2)C1 (stereo not drawn),-13.6
9,O=C(CC1CCCC1)Nc1ccc(-n2cc(Br)cn2)nc1,-2.32
10,O=C(c1csc(-c2ccc(C(F)(F)F)cc2)n1)N1CCCNCC1,-2.7
11,COc1ccc(CNC(=O)CCN2C[C@@H](C)[C@](O)(C3CC3)C2)cc1,-4.82
12,CN(Cc1cccnc1)Cc1cncc2c1CCN(c1ccccn1)C2,2.24
13,CCCS(=O)(=O)N1CCC2(CCCN(Cc3cccc(F)c3F)C2=O)C1 (stereo not drawn),-7.34
14,O=C1c2ncccc2C(CCO)N1Cc1ccccc1 (stereo not drawn),-3.47
15,CCn1ncc2c1C(COC)N(C(=O)Cc1cccs1)CC2 (stereo not drawn),-0.61
16,O=C(C1CCCC1)N1CCCC2(CCN(c3cnccn3)CC2)C1,-8.23
17,COc1ccc(C2=NOC(CC#N)C2)cc1 (stereo not drawn),-1.51
18,Cc1nc(C)n(CC2CN(CCCOc3ccccc3)CCO2)n1 (stereo not drawn),-2.14
19,NC(=O)c1cc(C2CCCN(C(=O)CCc3cccs3)C2)n[nH]1 (stereo not drawn),10.7
20,COCC1CC2(CCN(C(=O)c3cnc4ccccc4c3)CC2)CO1 (stereo not drawn),-0.655
21,Cn1cc(S(=O)(=O)NCc2ccc(F)cc2)cn1,-2.02
22,Cc1cnn(C2CCCN(C(=O)c3ccn(C)c(=O)c3)C2)c1 (stereo not drawn),-11.3
23,CCCC(O)CN1CCC(=O)N(C)Cc2cc(F)ccc21 (stereo not drawn),18.5

row,Compound,cytotoxicity at 70.5 h [%]
1,COCCN(Cc1ccccn1)C(=O)Nc1cccnc1-n1cccn1,18.4
2,COc1cccc(CNCC2CCN(CC(C)O)CC2)c1OC (stereo not drawn),-5.57
3,NC1(CNC(=O)c2cc3ccccc3[nH]2)CCCC1,16
4,CNS(=O)(=O)c1cnccc1N1CCN(C(C)C)CC1,2.6
5,Cc1nc(COc2nc(C(C)C)no2)cs1,-5.35
6,CCc1ocnc1C(=O)Nc1ccc2ccn(CCN(C)C)c2c1,-13.2
7,CC[C@@]1(O)CCN(C(=O)c2ccc(CN3CCCCCC3)cc2)C[C@H]1O,-3.75
8,CCCc1n[nH]c(C2CN(C(=O)c3cc(C4CC4)on3)CCO2)n1 (stereo not drawn),-10.9
9,COCC1CN(C(=O)c2cccs2)Cc2nccn2C1 (stereo not drawn),-8.64
10,COCCN1CCC(Cc2cncc(-c3ccc(C(=O)O)cc3)n2)C1 (stereo not drawn),-11.8
11,CC(C)(C)c1nc(CNC(=O)N2CCc3ccccc3C2CO)no1 (stereo not drawn),-2.31
12,O=C(N1CCOCC1)[C@@]12CCO[C@@H]1CCN(Cc1ccccc1F)C2,-9.82
13,O=C(NCC1CC[C@@H]2[C@@H]1OCCN2Cc1cccs1)c1ccco1 (stereo partly drawn),-0.679
14,Cc1nccn1CC1CCCN(C(=O)c2cnn(C)c2)C1 (stereo not drawn),-12.8
15,O=S(=O)(c1cccs1)N1CCCn2cnc(CN3CCCC3)c2C1,23.3
16,CC(C#N)CSc1ccccc1NCC(=O)NC(=O)NC(C)(C)C (stereo not drawn),-2.56
17,COc1ccc(CNC(=O)Nc2cccnc2OC)cc1O,22.7
18,CCCc1cc(CN(C)C2CC(C)(C)NC(C)(C)C2)n[nH]1,-4.42
19,Cc1cc(CNc2nccc(N)n2)c2[nH]c(C)c(C)c2c1,1.64
20,N#Cc1ccc(C(=O)O)nc1/C=C/c1cccc(F)c1,-7.55
21,O=C(NCC1CCCO1)c1c(-n2cnnn2)sc2c1CCC2 (stereo not drawn),-18.6
22,O=C(COc1ccc(Cl)cc1)NCc1nncn1C1CC1,-14.1
23,Cn1c(CS(=O)(=O)c2ccc(Cl)cc2)cc(=O)n(C)c1=O,-4.14

row,Compound,cytotoxicity at 70.5 h [%]
1,O=C(NCCOCCO)[C@@]12CNC[C@@H]1CN(C1CCCC1)C2,2.24
2,Cc1cc(NC(=O)C(C)C)n(-c2nc(C)c(C)c(=O)[nH]2)n1,56.9
3,C1CC(CN2CCOCC3(CCN(C4CCOCC4)C3)C2)CCO1 (stereo not drawn),-6.07
4,CS(=O)(=O)NCCCNCc1cc(F)ccc1Br,-2.01
5,CCN1CC2(CCC1=O)CCN(c1ccc(C(C)=O)cn1)CC2,-3.76
6,CCS(=O)(=O)CCNCc1cc(O)c2cc(C)cc(C)c2n1,0.215
7,CC(C)NC(=O)c1nc2c(s1)CCCN2Cc1ccccc1,-6.15
8,CCc1ccc(S(=O)(=O)N2CCN(CCn3ccnc3)CC2)cc1,-0.658
9,CC1CN(Cc2ccccc2)CCCN1CCCS(C)(=O)=O (stereo not drawn),-4.81
10,Cc1nn(CC(F)F)c2c1c(C(F)F)cc(=O)n2CC(=O)O,23.6
11,COc1ccccc1C(O)Cn1cc(C(=O)NCc2ccco2)nn1 (stereo not drawn),0.751
12,COc1cc(CN2CCC(O)(c3ccc(C)cn3)CC2)cc(Cl)c1OC,17.5
13,CSc1cccc(CNC(=O)C2CC(=O)N(CCN(C)C)C2)c1 (stereo not drawn),4.55
14,CC(=O)N1[C@H](Cn2cncn2)C[C@@H]2CN(S(C)(=O)=O)CC[C@@H]21,-8.6
15,COc1ccc(CCN2CC(c3nc(CSC)no3)CCC2=O)cc1 (stereo not drawn),-4.88
16,Cc1ccc(C(=O)N(C)Cc2ccc3c(c2)OCCO3)c(=O)[nH]1,18.5
17,COc1ccc2cc(NC(=O)CCNc3ncccn3)cnc2c1,-29.1
18,O=C(NCc1cccs1)[C@H]1CC[C@@H]2[C@@H](CCN2C2CCC2)O1,-3.48
19,CC(=O)NCc1cc2n(n1)CCN(Cc1cccc(Cl)c1Cl)C2,0.275
20,CN(C(=O)Cc1ccc(NC(=O)NC2CC2)cc1)c1ccccc1,19.9
21,O=C1CC(N2CCN(c3ccc(F)cc3)CC2)C(=O)N1Cc1cccs1 (stereo not drawn),-12.3
22,CCS(=O)(=O)N1CCO[C@H]2[C@H](OCC3CCCC3)CC[C@@H]21,-13.9
23,Cn1ccnc1CN1CCCN(C(=O)COCC2CC2)CC1,-3.74

row,Compound,cytotoxicity at 70.5 h [%]
1,CCc1ncc(CN2CCC3(CCCN(CC4CCC4)C3)C2)cn1 (stereo not drawn),-6.02
2,c1ccc(COCCN2CCc3[nH]cnc3C2c2ccco2)cc1 (stereo not drawn),-4.41
3,N#Cc1cccc(N2CC3(CCN(C(=O)c4ccncc4)C3)CC2=O)c1 (stereo not drawn),-5.96
4,CCc1ncncc1C(=O)NC1CCc2nc(C)cn2C1 (stereo not drawn),-1.22
5,CC(NC(=O)NCCCN1CCCC1=O)c1ccc(Cl)s1 (stereo not drawn),-14.2
6,O=C(CCC(=O)N1CCC(c2noc3cc(F)ccc23)CC1)NC1CC1,13.1
7,N#Cc1ccccc1CN1C[C@@H]2CC[C@H](C1)N(CC1CCC1)C2=O,-4.58
8,Cc1cc(C)n2nc(CC(=O)N3CC[C@H]4NCCC[C@]4(CO)C3)nc2n1,-3.3
9,CCN1CCOC(CNCc2ccccc2OCc2ccncc2)C1 (stereo not drawn),14.2
10,CC(C)(C)c1cc(C[C@H]2CNCC[C@H]2CC(=O)Nc2ccccc2)no1,-2.1
11,Cn1ccnc1CN1CCC2(CC1)CN(Cc1ccccc1)C(=O)CO2,-5.92
12,Cc1ccccc1C(C(=O)NCCSC(C)C)N(C)C (stereo not drawn),-9.38
13,Cn1nc(C(=O)NCc2cccc(Cn3ccnc3)c2)ccc1=O,3.47
14,NC(=O)C(NC(=O)c1cc(Cl)c[nH]1)c1ccccc1 (stereo not drawn),-8.05
15,CC(=O)N1N=C(c2ccccc2)OC1C(=O)NCC(=O)OC(C)(C)C (stereo not drawn),-2.16
16,Cc1ccc(CNC(=O)CNCC2CCN(CCO)CC2)s1,-1.79
17,CC(C)=CCCC1(C)C=Cc2c(cc(C)n(CC(=O)O)c2=O)O1 (stereo not drawn),-3.4
18,CS(=O)(=O)N1CCCN(C(=O)c2ccc(Cn3ccccc3=O)o2)CC1,-7.8
19,COc1c(CNC(c2cccc(F)c2)c2nccn2C)c(C)nn1C (stereo not drawn),19
20,CC(C)n1ccc(CN2CCOC(CNc3cccnn3)C2)n1 (stereo not drawn),3.22
21,CC1CN(C)c2ccccc2CN1C(=O)c1cc(C#N)cn1C (stereo not drawn),14.8
22,Cc1n[nH]c(CN2CCN(C(=O)C3CCC3)[C@@H]3CS(=O)(=O)C[C@@H]32)n1,0.743
23,Clc1ccccc1-c1nc(CNC2CCc3ncnn3C2)cs1 (stereo not drawn),-1.51

row,Compound,cytotoxicity at 70.5 h [%]
1,Cc1cc(Nc2cnccn2)cc(C2CCCN2)n1 (stereo not drawn),12.2
2,CCc1nccn1C1CCCN(C(=O)c2ccc3c(c2)OCCO3)C1 (stereo not drawn),-9.17
3,O=C1COc2cc(OC[C@@H]3CCCN4CCCC[C@H]34)ccc21,14.3
4,CC(C)OCCCNC(=O)NC(C)c1ccc(-n2cncn2)cc1 (stereo not drawn),0.395
5,COc1ccnc(NC2CCN(CC(=O)Nc3ccccc3)CC2)n1,4.43
6,OCC1CCCCN1CCn1ccnc1-c1ccc2c(c1)OCCO2 (stereo not drawn),-5.38
7,O=c1nc(CNc2ccccc2)[nH]n1Cc1ccccc1,-13.1
8,CC(C)NC(=O)N1CCN(CCn2cccn2)c2ncccc2C1,-2.7
9,COc1cccc(-c2n[nH]c3c2CN(C(=O)C2=C(C)OCCO2)CC3)c1,-4.06
10,CCc1ccc(C(=O)NC2CCCN(c3ccn(C)n3)C2=O)o1 (stereo not drawn),9.2
11,c1ccc(Cc2noc(CN3CCc4c(ncn4C4CC4)C3)n2)cc1,11.8
12,Cc1cc(C(=O)NCc2cccnc2N(C)C)c(C)o1,14.3
13,O=C(c1n[nH]c2ccccc12)N1CCCC1c1noc(C2CC2)n1 (stereo not drawn),-17.4
14,COc1ccc(OCCNCc2c(C)nn(C)c2N(C)C)cc1,31.1
15,Cn1ccnc1CN(CCCO)C1CCCc2ccccc21 (stereo not drawn),7.41
16,Cc1ccc(C2COCCN2C(=O)c2ccc(F)c(F)c2)o1 (stereo not drawn),-0.394
17,CN(C)C(=O)c1n[nH]c2c1CN(Cc1nccs1)CC2,-1.73
18,Cc1ccc(CN(Cc2cccnc2)C2CC(C)(C)NC(C)(C)C2)s1,9.23
19,O=C1NCCN1C1CCN(Cc2nc(-c3ccc(F)cc3)no2)CC1,25
20,CN(C)c1cc(C2CCCN2C(=O)c2ccc(=O)n(C)c2)ccn1 (stereo not drawn),-7.99
21,CC(C)NC(=O)c1ccc2c(c1)C1(CCN(C(C)C)CC1)C(=O)N2,0.266
